The results in this text go back to patent publication US20250074873A1, “COMPOUNDS” (Psylo Pty Ltd, priority 2021, published 2025).

Type in all cases: cell-based
In assay [1] the target is T1, 5-HT2A receptor (Homo sapiens, UniProt P28223).
T1 construct: host or cells: HEK293
The assay is described as follows: FLIPR Ca2+ flux functional assay, 5-HT2A agonist activity. As to the method:
(§1) Functional Assays 5-HT2A, 5-HT2B and 5-HT2C Receptors
(§2) Activity at 5-HT2A, 5-HT2B and 5-HT2C receptors was determined using a FLIPR Ca2+ flux assay at WuXi AppTec Co. Ltd. (Hong Kong) Discovery Biology Unit according to their standard protocols. Briefly, stably transfected cells expressing the receptor of interest (HEK293 for 5-HT2A and 5-HT2C; CHO-K1 for 5-HT2B) were grown and plated in a 384 well plate and incubated at 37° C. and 5% 002 overnight. A 250 mM stock solution of probenecid in FLIPR calcium assay buffer (10 mL) was freshly prepared and combined with a fluorescent dye (Fluo-4 Direct) to give a final assay concentration of 2.5 mM. Reference compounds were 4-fold serially diluted and the screening compounds were 3-fold serially diluted in 100% DMSO for 10 points using Agilent Bravo, and 750 nL was added to a 384 well compound plate using Echo along with 30 μL assay buffer. The fluorescent dye was then added to the assay plate along with assay buffer to a final volume of 40 μL. The cell plate was incubated for […] at 37° C. and 5% 002 and placed into the FLIPR Tetra along with the compound plate. 10 μL of references and compounds were then transferred from the compound plate into the cell plate and the fluorescent signal was read.
In general terms: Calcium flux is commonly read through the fluorescence of an indicator in the cells.

Assay [2] deals with T2, 5-HT2C receptor (Homo sapiens, UniProt P28335).
T2 construct: host or cells: HEK293
T2 sequence (P28335 33-458): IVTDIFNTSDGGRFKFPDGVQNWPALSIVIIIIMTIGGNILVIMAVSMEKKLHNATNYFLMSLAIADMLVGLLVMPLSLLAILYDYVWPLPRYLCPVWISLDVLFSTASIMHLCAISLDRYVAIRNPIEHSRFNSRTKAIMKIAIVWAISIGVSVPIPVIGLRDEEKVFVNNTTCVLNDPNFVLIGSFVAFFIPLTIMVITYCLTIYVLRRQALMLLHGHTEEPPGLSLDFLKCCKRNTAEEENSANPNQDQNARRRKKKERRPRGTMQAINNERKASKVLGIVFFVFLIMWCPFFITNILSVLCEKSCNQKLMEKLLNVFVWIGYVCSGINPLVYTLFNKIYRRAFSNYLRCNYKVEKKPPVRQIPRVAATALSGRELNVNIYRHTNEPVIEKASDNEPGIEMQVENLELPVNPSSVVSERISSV
Nature of the assay: FLIPR Ca2+ flux functional assay, 5-HT2C agonist activity. The procedure:
as §1, §2

Assay [3] concerns the target T3, 5-HT2B receptor (Homo sapiens, UniProt P41595).
T3 construct: host or cells: CHO-K1
The assay is described as follows: FLIPR Ca2+ flux functional assay, 5-HT2B agonist activity. As to the method: as §1, §2

[4] abbreviates: agonist activity, Ca2+ flux, stably transfected HEK293 cells.
[5] abbreviates: agonist activity, Ca2+ flux, stably transfected CHO-K1 cells.

Like-named read-outs stand apart in the source and are kept apart here. Some results are limits rather than exact numbers.

T1 sequence (P28223 whole entry): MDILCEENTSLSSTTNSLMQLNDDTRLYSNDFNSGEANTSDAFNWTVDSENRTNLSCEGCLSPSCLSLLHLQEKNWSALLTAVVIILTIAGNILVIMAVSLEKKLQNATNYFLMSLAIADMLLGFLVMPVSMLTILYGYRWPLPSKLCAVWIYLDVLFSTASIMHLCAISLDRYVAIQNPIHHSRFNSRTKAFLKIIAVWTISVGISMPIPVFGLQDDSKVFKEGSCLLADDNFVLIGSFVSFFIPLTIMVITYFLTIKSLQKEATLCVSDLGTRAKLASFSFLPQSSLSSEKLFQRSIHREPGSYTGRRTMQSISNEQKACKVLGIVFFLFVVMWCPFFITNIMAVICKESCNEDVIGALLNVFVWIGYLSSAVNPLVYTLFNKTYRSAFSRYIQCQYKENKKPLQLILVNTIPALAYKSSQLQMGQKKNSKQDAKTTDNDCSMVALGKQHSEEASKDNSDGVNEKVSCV
T3 sequence (P41595 whole entry): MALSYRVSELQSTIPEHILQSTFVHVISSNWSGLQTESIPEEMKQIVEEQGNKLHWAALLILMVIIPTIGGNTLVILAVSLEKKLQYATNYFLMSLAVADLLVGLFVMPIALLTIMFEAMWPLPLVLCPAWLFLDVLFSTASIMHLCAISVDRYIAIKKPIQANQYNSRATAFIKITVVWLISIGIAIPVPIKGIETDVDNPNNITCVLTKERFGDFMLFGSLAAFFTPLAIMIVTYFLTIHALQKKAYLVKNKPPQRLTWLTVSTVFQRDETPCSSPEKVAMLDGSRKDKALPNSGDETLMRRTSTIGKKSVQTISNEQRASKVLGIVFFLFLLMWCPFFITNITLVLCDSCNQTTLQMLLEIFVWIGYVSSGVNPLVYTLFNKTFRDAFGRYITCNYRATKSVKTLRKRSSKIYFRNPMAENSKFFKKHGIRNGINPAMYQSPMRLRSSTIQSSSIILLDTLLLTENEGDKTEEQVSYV

Regarding `CCCN(CCc1c[nH]c2cccc(O)c12)C(C)C` [Compound P-141, 3-(2-(isopropyl(propyl)amino)ethyl)-1H-indol-4-ol], the EC50 in assay [1] amounted to 13.8 nM; in assay [2] it was 422 nM; in assay [3], 330 nM. Moreover, the Emax came out at 105% in assay [1] (setting [4]), 92% in assay [2] (setting [4]) and 62.2% in assay [3] (setting [5]).
As for `COc1ccc2[nH]cc(CCN(C)C3CC3)c2c1` [Compound P-162, N-(2-(5-methoxy-1H-indol-3-yl)ethyl)-N-methylcyclopropanamine], the concentration for a half-maximal effect (EC50) in assay [1] was 4.83 nM; in assay [2] it was 10.6 nM; in assay [3] it was not below 10000 nM. The Emax stood at 95.6% in assay [1] (setting [4]), 89.2% in assay [2] (setting [4]) and 12% in assay [3] (setting [5]).
On to `COc1ccc2[nH]cc(CCN(C)C3CCC3)c2c1` [Compound P-163, N-(2-(5-methoxy-1H-indol-3-yl)ethyl)-N-methylcyclobutanamine], for which the EC50 in assay [1] is 25.4 nM; in assay [2], 128 nM; in assay [3], not below 10000 nM. Also, the Emax in assay [1] (setting [4]) came to 90.5%; in assay [2] (setting [4]) it was 75.9%; in assay [3] (setting [5]), 2.29%.
For `COc1ccc2[nH]cc(CCN(C)C3COC3)c2c1` [Compound P-164, N-(2-(5-methoxy-1H-indol-3-yl)ethyl)-N-methyloxetan-3-amine], the values for the Emax in assay [1] (setting [4]), in assay [2] (setting [4]) and in assay [3] (setting [5]) were 57.5%, 59.9% and 1.26%, respectively. Besides, the EC50 in assay [1] (agonist activity, Ca2+ flux, stably transfected HEK293 cells, read-out: 5-HT2A EC50) is 671 nM; in assay [2] (agonist activity, Ca2+ flux, stably transfected HEK293 cells, read-out: 5-HT2c EC50), 6280 nM; in assay [3] (agonist activity, Ca2+ flux, stably transfected CHO-K1 cells, read-out: 5-HT2B EC50), not below 10000 nM.

By EC50 is commonly meant the concentration giving half of the maximal effect. As usually defined, the Emax is the greatest response seen or fitted, relative to the assay's reference.
